The values that follow come from patent US9624210B2, “Amino-pyrimidine-containing spleen tyrosine kinase (Syk) inhibitors” (Merck Sharp & Dohme Corp., priority 2012, dated 2017).

In data set [1] the target is recombinant human GST-Syk (Homo sapiens (Human), UniProt P43405). Description: Homogeneous Time-Resolved Fluorescence (HTRF) assay for the recombinant human Syk enzyme. It counts as biochemical. The following applies: 10-dose titration 10 μM to 0.508 nM; 25 μM ATP; values below lowest test concentration given as <0.508. Here is the method: Assay 1: Homogeneous Time-Resolved Fluorescence (HTRF) Assay for the Recombinant Human Syk Enzyme A recombinant GST-hSyk fusion protein was used to measure potency of compounds to inhibit human Syk activity. The recombinant human GST-Syk (Carna Biosciences #08-176) (5 pM final concentration total protein) was incubated with various concentrations of the inhibitor diluted in DMSO (0.1% final concentration) for 10 minutes at room temperature in 15 mM Tris-HCl (pH 7.5), 0.01% Tween 20, 2 mM DTT in 384 well plate format. To initiate the reaction the biotinylated substrate peptide (250 nM final concentration) that contains the phosphorylation site for Syk was added with magnesium (5 mM final concentration) and ATP (25 μM final concentration). The final volume of the reaction was 10 μL. Phosphorylation of the peptide was allowed to proceed for 45′ at room temperature. To quench the reaction and detect the phosphorylated product, 2 nM of a Europium-anti-phosphotyrosine antibody (Perkin Elmer #AD0161) and 70 nM SA-APC (Perkin-Elmer #CR130-100) were added together in 15 mM Tris pH 7.5, 40 mM EDTA, 0.01% Tween 20. The final volume of the quenching solution was 10 μL. The resulting HTRF signal was measured after 30 minutes on a EnVision (Perkin-Elmer) reader using a time-resolved fluorescence protocol. […] Table A provides the IC50 values for representative compounds of the invention.
(TR-FRET usually uses a lanthanide donor and a delayed reading to cut background.)

Data set [2] has as its target phosphorylated Syk enzyme (Homo sapiens (Human), UniProt P43405). Description: Dissociation rate: enzyme-inhibitor dilution and activity recovery assay (TR-FRET). As to conditions: for recovery of Syk enzyme activity following dilution of the inhibitor:Syk complex (relative to the DMSO control): 100-fold dilution after 2 hours preincubation, FIG. 1 and FIG. 2. The class given is biochemical. Here is the method:
Assay 2: Determination of the Dissociation Rate for Compound 1B
The dissociation rate (koff) of inhibitor:phosphorylated Syk complexes was examined using an enzyme-inhibitor dilution and activity recovery assay (R. A. Copeland, Enzymes: A practical introduction to structure, Mechanism, and Data Analysis Wiley-VCH 2000 and R. A. Copeland, Evaluation of Enzyme Inhibitors in Drug Discovery John Wiley & Sons, 2005). In this assay the recovery of kinase activity following dilution is measured using a time resolved fluorescence resonance energy transfer (TR-FRET) assay. The enzyme (at 100× the usual assay concentration) and inhibitor (at 20× the usual assay concentration) are preincubated for 2 hours to ensure equilibrium is reached. The samples are then diluted 100-fold into assay buffer (1× Kinase buffer [Invitrogen, Inc], 2 mM DTT, 0.05% BSA) containing a saturating amount of competitive substrate (1 mM ATP, to minimize rebinding of inhibitor) and peptide substrate (1 μM). The final nominal enzyme concentration following dilution is 4 pM. Samples (1 μL) are periodically withdrawn from the assay plate and transferred into 50 uL of detection/quench buffer (10 nM streptavidin labeled Dylite (Perkin Elmer) and 3 nM Eu-labeled antiphosphotyrosine antibody (pY20, Perkin Elmer). After 30 minutes incubation, the assay plate was read on the Envision reader (Perkin Elmer) using the following parameters: excitation wavelength of 320 nm, and dual emission monitoring at 616 and 665 nm. The delay time was 20 μs with a 200 μs window time. The time between flashes was 16600 μs and 20 flashes were used per well.
The recovery of enzyme activity is fit to the following equation (Morrison, J. F., and Walsh, C. T., (1988) Advances in Enzymology and Related Areas of Molecular Biology, 61 201-301): P=vst+[(vi−vs)/kobs][1−exp(−kobst)]+P0 where P is the quantity of phosphorylated peptide product produced, P0 is the concentration of phosphopeptide product present at time=0 (immediately following dilution), vs is the steady-state velocity, vi is the rate at time=0, and kobs is the rate constant describing activity recovery.

Data set [3] has as its system allergic rhinitis. The following applies: dosed intranasally, phase I/II study; cited from earlier work.
In data set [4] the test system is allergic rhinitis. The following applies: phase II clinical trial; cited from earlier work.

As for `Cc1cc(Nc2nccc(C(F)(F)F)n2)cc(-c2cnc(C3(O)CCCc4cc(C(=O)O)ccc43)s2)c1` (racemic) [Compound 1, 5-hydroxy-5-(5-(3-methyl-5-((4-(trifluoromethyl)pyrimidin-2-yl)amino)phenyl)thiazol-2-yl)-5,6,7,8-tetrahydronaphthalene-2-carboxylic acid], the IC50 – broadly, the concentration at which inhibition is half-maximal – in data set [1] was under 0.508 nM.

For the compound `Cc1cc(Nc2nccc(C(F)(F)F)n2)cc(-c2cnc([C@]3(O)CCCc4cc(C(=O)O)ccc43)s2)c1` [Compound 1A, (S)-5-hydroxy-5-(5-(3-methyl-5-((4-(trifluoromethyl)pyrimidin-2-yl)amino)phenyl)thiazol-2-yl)-5,6,7,8-tetrahydronaphthalene-2-carboxylic acid], the IC50 in data set [1] was 1.6 nM.

Consider `Cc1cc(Nc2nccc(C(F)(F)F)n2)cc(-c2cnc([C@@]3(O)CCCc4cc(C(=O)O)ccc43)s2)c1` [Compound 1B, (R)-5-hydroxy-5-(5-(3-methyl-5-((4-(trifluoromethyl)pyrimidin-2-yl)amino)phenyl)thiazol-2-yl)-5,6,7,8-tetrahydronaphthalene-2-carboxylic acid], for which the IC50 in data set [1] is under 0.508 nM. In data set [2], the “dissociation rate of the inhibitor:phosphorylated Syk complex” value was “slow dissociation rate” and the “recovery of Syk enzyme activity following dilution of the inhibitor:Syk complex (relative to the DMSO control)” value is “only a fraction of the activity returned (relative to the DMSO control) after two hours”. Further, in data set [2] (after 100-fold dilution into 1 mM ATP, FIG. 2), the “half-life of the inhibitor:Syk complex” value was over 2 h.

`Cc1cc(Nc2nccc(C(C)C)n2)cc(-c2cnc([C@]3(O)CC[C@@H](C(=O)O)CC3)s2)c1` [Compound A, reference compound]: the IC50 in data set [1] is under 0.508 nM. Besides, the “recovery of Syk enzyme activity following dilution of the inhibitor:Syk complex (relative to the DMSO control)” value in data set [2] is recorded as “fully recovered (relative to the DMSO control) within the first five minutes after dilution”.

`Oc1cccc(Nc2ncc(F)c(Nc3cccc(O)c3)n2)c1` [Compound R112]: in data set [3], the PGD2 entry is given as “statistically significant decrease” and the clinical safety entry is given as “safe across a range of indicators”. Further, the efficacy versus placebo result in data set [4] is on record as “lack of efficacy”.
